Measurements from ChEMBL document CHEMBL5338804 (J Med Chem, 2023).
≈ marks a conversion by molar mass, not a printed value.

How the values were obtained:
[1] = Volume of distribution at steady state in C57BL/6 mouse at 2 mg/kg, iv by LC-MS/MS analysis; type: ADME, organism-based; settings: in vivo, read-out: Vdss
[2] = Clearance in C57BL/6 mouse at 2 mg/kg, iv by LC-MS/MS analysis; type: ADME, organism-based; settings: in vivo
[3] = Permeability of the compound from apical to basolateral side in human Caco-2 cells at 3 uM incubated for 2 hrs by LC-MS/MS analysis; type: ADME, cell-based; settings: read-out: permeability
[4] = Metabolic stability in human liver microsomes assessed as parent compound remaining at 0.5 uM measured after 10 mins in presence of NADPH by LC-MS/MS analysis; type: ADME, Microsome; settings: read-out: Stability
[5] = Permeability of the compound at 100 uM incubated for 4 hrs at pH 7.4 by PAMPA assay; type: ADME; settings: read-out: permeability
[6] = Cmax in C57BL/6 mouse at 10 mg/kg, po by LC-MS/MS analysis; type: ADME, organism-based; set-up: dose 10 mg/kg, route po; settings: in vivo
[7] = Permeability of the compound from basolateral to apical side in human Caco-2 cells at 3 uM incubated for 2 hrs by LC-MS/MS analysis; type: ADME, cell-based; settings: read-out: permeability
[8] = MRT in C57BL/6 mouse at 2 mg/kg, iv by LC-MS/MS analysis; type: ADME, organism-based; settings: in vivo
[9] = AUC (total) in C57BL/6 mouse at 10 mg/kg, po by LC-MS/MS analysis; type: ADME, organism-based; set-up: dose 10 mg/kg, route po; settings: in vivo
[10] = Metabolic stability in rat liver microsomes assessed as parent compound remaining at 0.5 uM measured after 10 mins in presence of NADPH by LC-MS/MS analysis; type: ADME, Microsome; settings: read-out: Stability
[11] = target: Glycogen synthase kinase-3 alpha (Homo sapiens, UniProt P49840); assay: Displacement of FL-KRREILSRRP[ps]ERYR-NH2 from human recombinant full length GST-tagged GSK-3-alpha expressed in insect cells incubated for 20 hrs by fluorescence based analysis; set-up: species or system Insect cell
[12] = Protein binding in mouse plasma assessed as unbound fraction at 10 uM incubated for 5 hrs by equilibrium dialysis method; type: ADME, cell-free
[13] = target: Glycogen synthase kinase-3 (Homo sapiens, UniProt P49840+P49841); assay: Inhibition of GSK-3 in human U2OS cells transfected with beta-catenin GFP and 4R1N tau plasmid assessed as inhibition of Tau phosphorylation at Ser396 residues by high-content imaging assay; type: cell-based
[14] = target: Glycogen synthase kinase-3 beta (Homo sapiens, UniProt P49841, H355L); assay: Displacement of FL-KRREILSRRP[ps]ERYR-NH2 from human recombinant N-terminal His6-tagged GSK-3-beta (14 to 306 residues) H355L mutant expressed in baculovirus-infected Sf21 cells incubated for 20 hrs by fluorescence based analysis
[15] = Half life in C57BL/6 mouse at 2 mg/kg, iv by LC-MS/MS analysis; type: ADME, organism-based; settings: in vivo
[16] = Metabolic stability in mouse liver microsomes assessed as parent compound remaining at 0.5 uM measured after 10 mins in presence of NADPH by LC-MS/MS analysis; type: ADME, Microsome; settings: read-out: Stability
[17] = Protein binding in rat plasma assessed as unbound fraction at 10 uM incubated for 5 hrs by equilibrium dialysis method; type: ADME, cell-free
[18] = Oral bioavailability in C57BL/6 mouse at 10 mg/kg by LC-MS/MS analysis; type: ADME, organism-based; settings: in vivo
[19] = Protein binding in human plasma assessed as unbound fraction at 10 uM incubated for 5 hrs by equilibrium dialysis method; type: ADME, cell-free
[20] = target: Protein kinase C theta type (Homo sapiens, UniProt Q04759); assay: Inhibition of PKC theta (unknown origin)
[21] = Permeability of the compound at 100 uM incubated for 4 hrs at pH 5.5 by PAMPA assay; type: ADME; settings: read-out: permeability
[22] = target: AP2-associated protein kinase 1 (Homo sapiens, UniProt Q2M2I8); assay: Inhibition of AAK1 (unknown origin)
[23] = Plasma concentration in LaFerla 3x transgenic Alzheimer's disease C57BL/6 mouse model at 10 mg/kg, po measured after 5 hrs; type: ADME, organism-based
[24] = target: Interleukin-1 receptor-associated kinase 4 (Homo sapiens, UniProt Q9NWZ3); assay: Inhibition of IRAK4 (unknown origin)
[25] = target: Mitogen-activated protein kinase 14 (Homo sapiens, UniProt Q16539); assay: Inhibition of MAPK p38-alpha (unknown origin)
[26] = target: MAP kinase-activated protein kinase 2 (Homo sapiens, UniProt P49137); assay: Inhibition of MK2 (unknown origin)
[27] = Thermodynamic aqueous solubility of the compound at pH 7.4 incubated for 18 to 24 hrs by HPLC-UV analysis; type: physicochemical; settings: aqueous medium, time 18-24 hrs, read-out: Therm_solubility
[28] = Ratio of drug concentration in brain to plasma in LaFerla 3x transgenic Alzheimer's disease C57BL/6 mouse model at 10 mg/kg, po measured after 5 hrs; type: ADME, organism-based; settings: read-out: BPR
[29] = target: Tyrosine-protein kinase SYK (Homo sapiens, UniProt P43405); assay: Inhibition of SYK (unknown origin)
[30] = target: Cyclin-dependent kinase 2 (Homo sapiens, UniProt P24941); assay: Inhibition of CDK2 (unknown origin)
[31] = target: Tyrosine-protein kinase JAK2 (Homo sapiens, UniProt O60674); assay: Inhibition of JAK2 (unknown origin)
[32] = target: Mast/stem cell growth factor receptor Kit (Homo sapiens, UniProt P10721); assay: Inhibition of c-Kit (unknown origin)
[33] = Protein binding in mouse brain assessed as unbound fraction at 1 uM incubated for 4 hrs by LC-MS analysis; type: ADME, tissue-based
[34] = target: Non-receptor tyrosine-protein kinase TYK2 (Homo sapiens, UniProt P29597); assay: Inhibition of TYK2 (unknown origin)
[35] = target: Casein kinase II subunit alpha (Homo sapiens, UniProt P68400); assay: Inhibition of CK2A1 (unknown origin)
[36] = Thermodynamic aqueous solubility of the compound at pH 1 incubated for 18 to 24 hrs by HPLC-UV analysis; type: physicochemical; settings: aqueous medium, time 18-24 hrs, read-out: Therm_solubility
[37] = target: Cyclin-dependent kinase 5 (Homo sapiens, UniProt Q00535); assay: Inhibition of CDK5 (unknown origin)
[38] = target: Tyrosine-protein kinase Lck (Homo sapiens, UniProt P06239); assay: Inhibition of LCK (unknown origin)
[39] = target: Casein kinase II subunit alpha' (Homo sapiens, UniProt P19784); assay: Inhibition of CK2A2 (unknown origin)
[40] = target: Platelet-derived growth factor receptor beta (Homo sapiens, UniProt P09619); assay: Inhibition of PDGFR-beta (unknown origin)
[41] = Ratio of unbound drug concentration in mouse brain to plasma at 10 uM incubated for 5 hrs by equilibrium dialysis method; type: ADME, cell-free; settings: read-out: K(p,uu,brain)
[42] = target: Tyrosine-protein kinase JAK1 (Homo sapiens, UniProt P23458); assay: Inhibition of JAK1 (unknown origin)
[43] = target: Tyrosine-protein kinase BTK (Homo sapiens, UniProt Q06187); assay: Inhibition of BTK (unknown origin)
[44] = target: Ribosomal protein S6 kinase alpha-1 (Homo sapiens, UniProt Q15418); assay: Inhibition of RSK1 (unknown origin)
[45] = target: Serine/threonine-protein kinase pim-1 (Homo sapiens, UniProt P11309); assay: Inhibition of PIM1 (unknown origin)
Aurora kinase A = Aurora kinase A (Mus musculus, UniProt P97477); assay: Inhibition of mouse Aurora kinase A
[46] = target: Casein kinase I isoform alpha (Homo sapiens, UniProt P48729); assay: Inhibition of CK1A1 (unknown origin)
[47] = target: Interleukin-1 receptor-associated kinase 1 (Homo sapiens, UniProt P51617); assay: Inhibition of IRAK1 (unknown origin)
[48] = Drug uptake in brain of LaFerla 3x transgenic Alzheimer's disease C57BL/6 mouse model at 10 mg/kg, po measured after 5 hrs; type: ADME, organism-based; settings: read-out: Drug uptake
Aurora kinase B = Aurora kinase B (Homo sapiens, UniProt Q96GD4); assay: Inhibition of Aurora kinase B (unknown origin)

Sequence of Glycogen synthase kinase-3 beta (P49841 whole entry, looked up, stated change not applied, the tested form may be a part): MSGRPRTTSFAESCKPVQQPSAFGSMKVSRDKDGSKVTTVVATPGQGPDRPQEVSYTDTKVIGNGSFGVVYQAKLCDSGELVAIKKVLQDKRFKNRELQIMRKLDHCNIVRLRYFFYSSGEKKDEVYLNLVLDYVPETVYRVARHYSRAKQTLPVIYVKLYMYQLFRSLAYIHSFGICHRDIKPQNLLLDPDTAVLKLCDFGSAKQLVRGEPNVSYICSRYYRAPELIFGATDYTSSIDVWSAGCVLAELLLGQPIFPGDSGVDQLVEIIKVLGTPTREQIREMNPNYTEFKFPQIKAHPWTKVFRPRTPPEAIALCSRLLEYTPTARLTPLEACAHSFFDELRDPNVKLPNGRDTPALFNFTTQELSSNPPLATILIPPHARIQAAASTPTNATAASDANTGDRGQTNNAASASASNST
Sequence of Glycogen synthase kinase-3 alpha (P49840 whole entry): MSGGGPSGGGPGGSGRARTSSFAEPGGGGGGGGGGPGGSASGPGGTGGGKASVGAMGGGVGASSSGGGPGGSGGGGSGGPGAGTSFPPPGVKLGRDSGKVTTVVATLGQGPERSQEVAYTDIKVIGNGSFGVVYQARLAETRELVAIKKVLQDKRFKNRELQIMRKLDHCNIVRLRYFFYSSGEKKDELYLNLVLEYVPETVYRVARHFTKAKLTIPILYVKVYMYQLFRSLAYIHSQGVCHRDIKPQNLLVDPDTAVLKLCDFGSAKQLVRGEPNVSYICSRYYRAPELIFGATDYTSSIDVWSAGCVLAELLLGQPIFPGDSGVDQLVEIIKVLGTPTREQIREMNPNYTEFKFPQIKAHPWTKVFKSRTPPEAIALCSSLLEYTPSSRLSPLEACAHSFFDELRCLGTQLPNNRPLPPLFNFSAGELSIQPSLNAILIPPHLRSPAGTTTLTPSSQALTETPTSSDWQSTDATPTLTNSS
Sequence of Interleukin-1 receptor-associated kinase 4 (Q9NWZ3 whole entry): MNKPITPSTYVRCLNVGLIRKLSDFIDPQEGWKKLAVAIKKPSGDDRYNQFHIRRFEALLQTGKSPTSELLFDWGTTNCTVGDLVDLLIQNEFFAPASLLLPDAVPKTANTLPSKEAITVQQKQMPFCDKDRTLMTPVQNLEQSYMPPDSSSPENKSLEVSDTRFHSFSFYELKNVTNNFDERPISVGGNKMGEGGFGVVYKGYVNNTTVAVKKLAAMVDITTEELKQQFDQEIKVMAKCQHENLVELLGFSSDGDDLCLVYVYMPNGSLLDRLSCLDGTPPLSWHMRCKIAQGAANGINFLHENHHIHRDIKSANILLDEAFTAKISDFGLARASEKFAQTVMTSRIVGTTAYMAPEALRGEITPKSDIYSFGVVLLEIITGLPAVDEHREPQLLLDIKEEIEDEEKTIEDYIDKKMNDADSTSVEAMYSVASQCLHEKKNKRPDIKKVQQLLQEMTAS
Sequence of Tyrosine-protein kinase JAK1 (P23458 whole entry): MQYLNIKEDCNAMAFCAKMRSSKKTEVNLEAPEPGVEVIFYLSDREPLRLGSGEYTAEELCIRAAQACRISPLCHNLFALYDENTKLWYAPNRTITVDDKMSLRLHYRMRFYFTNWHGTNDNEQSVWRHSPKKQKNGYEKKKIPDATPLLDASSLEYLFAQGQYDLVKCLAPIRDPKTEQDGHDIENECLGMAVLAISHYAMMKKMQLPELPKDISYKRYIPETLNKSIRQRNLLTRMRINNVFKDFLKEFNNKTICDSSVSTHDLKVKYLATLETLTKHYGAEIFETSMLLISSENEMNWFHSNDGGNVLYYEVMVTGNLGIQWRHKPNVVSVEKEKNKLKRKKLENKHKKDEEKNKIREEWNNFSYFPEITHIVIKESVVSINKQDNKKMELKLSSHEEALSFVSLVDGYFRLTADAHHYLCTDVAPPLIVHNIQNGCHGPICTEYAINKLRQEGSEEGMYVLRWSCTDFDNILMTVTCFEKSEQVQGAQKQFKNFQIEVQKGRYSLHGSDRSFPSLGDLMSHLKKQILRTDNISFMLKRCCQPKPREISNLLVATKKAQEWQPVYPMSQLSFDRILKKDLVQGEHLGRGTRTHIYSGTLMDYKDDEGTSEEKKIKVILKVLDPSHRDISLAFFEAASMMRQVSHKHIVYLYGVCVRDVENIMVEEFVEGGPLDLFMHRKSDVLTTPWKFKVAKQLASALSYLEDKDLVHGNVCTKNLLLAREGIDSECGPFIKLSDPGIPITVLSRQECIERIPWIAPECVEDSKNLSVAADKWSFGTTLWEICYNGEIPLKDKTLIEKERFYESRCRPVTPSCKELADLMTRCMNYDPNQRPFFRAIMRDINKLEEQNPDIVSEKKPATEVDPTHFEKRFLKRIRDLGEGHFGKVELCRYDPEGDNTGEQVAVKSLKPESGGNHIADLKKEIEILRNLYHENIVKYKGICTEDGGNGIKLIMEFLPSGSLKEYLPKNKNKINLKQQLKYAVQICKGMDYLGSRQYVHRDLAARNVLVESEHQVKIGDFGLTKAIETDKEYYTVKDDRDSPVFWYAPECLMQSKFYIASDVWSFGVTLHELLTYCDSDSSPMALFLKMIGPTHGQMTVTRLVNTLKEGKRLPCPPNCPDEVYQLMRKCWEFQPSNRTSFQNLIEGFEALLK
Sequence of Non-receptor tyrosine-protein kinase TYK2 (P29597 whole entry): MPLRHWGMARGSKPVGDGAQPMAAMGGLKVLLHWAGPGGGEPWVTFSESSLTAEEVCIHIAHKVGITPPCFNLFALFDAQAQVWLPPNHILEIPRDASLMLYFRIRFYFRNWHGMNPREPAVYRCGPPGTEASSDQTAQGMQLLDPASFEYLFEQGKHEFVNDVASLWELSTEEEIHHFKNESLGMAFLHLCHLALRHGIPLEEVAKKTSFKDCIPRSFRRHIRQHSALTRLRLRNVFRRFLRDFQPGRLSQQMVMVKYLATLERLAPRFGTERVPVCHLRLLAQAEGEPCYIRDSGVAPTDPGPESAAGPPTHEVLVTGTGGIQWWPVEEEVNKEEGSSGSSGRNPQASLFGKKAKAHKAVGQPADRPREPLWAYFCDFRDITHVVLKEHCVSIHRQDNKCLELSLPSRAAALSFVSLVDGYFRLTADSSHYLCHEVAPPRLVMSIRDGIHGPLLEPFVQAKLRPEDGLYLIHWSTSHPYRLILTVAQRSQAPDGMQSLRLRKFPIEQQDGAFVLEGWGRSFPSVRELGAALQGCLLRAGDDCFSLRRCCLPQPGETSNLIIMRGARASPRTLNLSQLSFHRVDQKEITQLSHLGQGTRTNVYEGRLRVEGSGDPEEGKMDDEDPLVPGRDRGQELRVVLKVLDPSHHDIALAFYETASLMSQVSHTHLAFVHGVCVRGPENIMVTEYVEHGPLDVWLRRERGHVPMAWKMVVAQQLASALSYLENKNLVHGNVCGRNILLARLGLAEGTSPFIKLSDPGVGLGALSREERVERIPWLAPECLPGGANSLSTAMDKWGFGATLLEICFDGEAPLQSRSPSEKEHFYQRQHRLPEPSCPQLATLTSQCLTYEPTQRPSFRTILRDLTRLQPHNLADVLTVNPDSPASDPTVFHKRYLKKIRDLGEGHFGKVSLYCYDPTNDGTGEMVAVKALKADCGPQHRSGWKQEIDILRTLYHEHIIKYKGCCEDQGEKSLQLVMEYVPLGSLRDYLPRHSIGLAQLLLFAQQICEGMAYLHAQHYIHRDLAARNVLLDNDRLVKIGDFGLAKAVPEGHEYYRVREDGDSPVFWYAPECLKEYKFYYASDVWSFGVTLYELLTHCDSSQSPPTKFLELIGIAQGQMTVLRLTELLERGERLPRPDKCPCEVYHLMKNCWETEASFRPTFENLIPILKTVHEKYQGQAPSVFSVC
Sequence of MAP kinase-activated protein kinase 2 (P49137 whole entry): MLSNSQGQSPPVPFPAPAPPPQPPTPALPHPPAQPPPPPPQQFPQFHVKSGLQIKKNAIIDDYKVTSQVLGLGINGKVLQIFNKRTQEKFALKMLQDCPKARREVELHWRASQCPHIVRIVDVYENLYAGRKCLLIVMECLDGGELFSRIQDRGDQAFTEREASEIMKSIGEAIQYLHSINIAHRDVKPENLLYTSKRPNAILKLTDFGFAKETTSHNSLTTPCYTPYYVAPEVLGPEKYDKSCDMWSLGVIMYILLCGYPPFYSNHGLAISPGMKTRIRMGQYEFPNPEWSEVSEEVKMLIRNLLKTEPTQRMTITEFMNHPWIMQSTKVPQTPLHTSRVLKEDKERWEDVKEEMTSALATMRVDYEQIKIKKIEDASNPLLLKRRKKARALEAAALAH
Sequence of Casein kinase I isoform alpha (P48729 whole entry, canonical isoform): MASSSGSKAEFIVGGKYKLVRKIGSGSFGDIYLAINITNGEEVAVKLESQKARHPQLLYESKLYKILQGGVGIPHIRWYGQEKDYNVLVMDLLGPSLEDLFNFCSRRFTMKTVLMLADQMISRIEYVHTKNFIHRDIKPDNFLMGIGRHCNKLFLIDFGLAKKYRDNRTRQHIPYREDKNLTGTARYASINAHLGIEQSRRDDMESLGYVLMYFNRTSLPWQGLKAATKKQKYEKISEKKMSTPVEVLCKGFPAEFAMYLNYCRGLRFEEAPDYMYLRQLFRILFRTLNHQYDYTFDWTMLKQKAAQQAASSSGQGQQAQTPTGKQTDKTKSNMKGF
Sequence of Casein kinase II subunit alpha (P68400 whole entry): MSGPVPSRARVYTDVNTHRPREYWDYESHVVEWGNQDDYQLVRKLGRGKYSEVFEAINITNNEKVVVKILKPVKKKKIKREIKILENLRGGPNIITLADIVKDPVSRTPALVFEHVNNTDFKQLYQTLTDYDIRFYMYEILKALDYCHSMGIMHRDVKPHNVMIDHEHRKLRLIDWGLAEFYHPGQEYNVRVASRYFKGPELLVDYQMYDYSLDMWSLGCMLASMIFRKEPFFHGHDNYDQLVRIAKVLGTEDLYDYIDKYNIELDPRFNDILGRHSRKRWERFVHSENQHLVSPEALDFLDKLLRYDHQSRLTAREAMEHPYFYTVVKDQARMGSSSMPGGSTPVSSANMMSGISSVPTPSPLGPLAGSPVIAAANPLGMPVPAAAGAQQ

O=C(Nc1cnccc1-c1ccc(F)cc1)c1ccnc(Nc2ccc(Cl)cc2)n1
Vd [1]: 3.3 L/kg
clearance [2]: 15.8 mL/min/kg
Papp A→B at 2 h, 3 µM [3]: 6.4 ×10⁻⁶ cm/s
remaining at 10 min, 0.5 µM [4]: 80%
Papp at 4 h, 100 µM [5]: 63.9 ×10⁻⁶ cm/s
Cmax [6]: 1400 nM
Papp B→A at 2 h, 3 µM [7]: 2.3 ×10⁻⁶ cm/s
MRT [8]: 3.4 h
AUC [9]: 5.8 µM·h
remaining at 10 min, 0.5 µM [10]: 43%
IC50 [11]: 0.00088 µM
fraction unbound at 5 h, 10 µM [12]: 0.004
IC50 [13]: 0.077 µM
IC50 [14]: 0.0011 µM
half-life [15]: 2.9 h
remaining at 10 min, 0.5 µM [16]: 79%
fraction unbound at 5 h, 10 µM [17]: 0.003
bioavailability [18]: 23%
fraction unbound at 5 h, 10 µM [19]: 0.002

O=C(Nc1cnccc1-c1ccc(F)cc1)c1ccnc(Nc2ccc(F)cc2)n1
IC50 [20]: 10.4 µM
Papp at 4 h, 100 µM [21]: 62 ×10⁻⁶ cm/s
IC50 [22]: > 2 µM
concentration at 5 h [23]: 180 nM
Vd [1]: 2.6 L/kg
IC50 [24]: > 23 µM
clearance [2]: 18.9 mL/min/kg
IC50 [25]: > 50 µM
Papp A→B at 2 h, 3 µM [3]: 11.8 ×10⁻⁶ cm/s
IC50 [26]: > 27 µM
remaining at 10 min, 0.5 µM [4]: 67%
solubility thermodynamic [27]: 1 µg/mL (≈ 2.48 µM)
Papp at 4 h, 100 µM [5]: 59 ×10⁻⁶ cm/s
Kp at 5 h [28]: 1
IC50 [29]: 16 µM
Cmax [6]: 1500 nM
Papp B→A at 2 h, 3 µM [7]: 4.4 ×10⁻⁶ cm/s
MRT [8]: 2.3 h
AUC [9]: 11.7 µM·h
IC50 [30]: 0.47 µM
remaining at 10 min, 0.5 µM [10]: 10%
IC50 [11]: 0.00045 µM
IC50 [31]: 14 µM
IC50 [32]: > 2 µM
fraction unbound at 4 h, 1 µM [33]: 0.003
IC50 [34]: 17 µM
IC50 [35]: > 50 µM
solubility thermodynamic [36]: 31 µg/mL (≈ 76.8 µM)
IC50 [37]: 0.68 µM
fraction unbound at 5 h, 10 µM [12]: 0.008
IC50 [38]: > 2 µM
IC50 [39]: > 2 µM
IC50 [40]: > 50 µM
Kp uu at 5 h, 10 µM [41]: 0.4
IC50 [13]: 0.034 µM
IC50 [42]: > 50 µM
IC50 [14]: 0.00056 µM
IC50 [43]: > 50 µM
half-life [15]: 2.8 h
IC50 [44]: > 50 µM
IC50 [45]: 1.4 µM
IC50 (Aurora kinase A): > 50 µM
remaining at 10 min, 0.5 µM [16]: 54%
fraction unbound at 5 h, 10 µM [17]: 0.007
IC50 [46]: > 2 µM
bioavailability [18]: 53%
fraction unbound at 5 h, 10 µM [19]: 0.002
IC50 [47]: > 2 µM
concentration at 5 h [48]: 180 nM
IC50 (Aurora kinase B): 11 µM
